Measurements as given in paper PMC12467033, “Exploring the Inhibitory Potential of Six Porphyrin Compounds Against α-Amylase and α-Glucosidase Linked to Diabetes” (Biomolecules, 2025).
Like-named read-outs stand apart in the source and are kept apart here.

What was measured:
α-glucosidase [1] = biological target: T1, α-glucosidase (Saccharomyces cerevisiae, UniProt P53341); experiment: Fluorescence quenching, binding and thermodynamics with α-glucosidase; conditions: for binding constants K: 310 K; for quenching mechanism of α-glucosidase fluorescence: Stern–Volmer plots; for quenching mechanism of α-glucosidase fluorescence / ΔH^0 / ΔS^0: 298–310 K; for ΔH^0 / ΔS^0: Van’t Hoff
Method: In the α-amylase experiment, a series of porphyrins and amylase (200 U/L) were mixed in a volume ratio of 1:1. In the α-glucosidase experiment, the glucosidase concentration was 400 U/L, mixed in a volume ratio of 1:1; the samples were maintained at three different temperatures (298, 304, and 310 K) for 30 min, with excitation at 280 nm and emission scanning from 300 to 500 nm.
(§1) The Stern–Volmer equation [35] was adopted to determine the quenching mechanisms between six porphyrin compounds and both enzymes in the experimental group, with Formula (6):(6) F0/F=1+Ksv[Q]=1+Kqτ0[Q]
(§2) The Stern–Volmer equation was adapted based on experimental data to more accurately characterize the quenching behavior [36], with Formula (7):(7) F0/F=e^Ksv[Q]=e^Kqτ0[Q]
(§3) In the formula, the fluorescence quenching ratio was calculated as F0/F, where F0 corresponds to the emission intensity of pure α-amylase solution (control) and F denotes the intensity measured after the incremental addition of porphyrin ligands. KSV and Kq denote the Stern–Volmer quenching constant and the bimolecular quenching rate constant, respectively, τ0 (10^−8 s) is the average fluorescence lifetime of the fluorophore in the absence of quencher, and [Q] indicates the concentration of porphyrin compounds.
(§4) Due to the presence of an internal filtration effect, a decrease in the fluorescence intensity of the system may occur. Therefore, all fluorescence data were corrected using Formula (8) to eliminate the internal filtration effect.(8) Fcor=Fobse^(Aex+Aem)/2
(§5) The evaluation of the interaction forces between porphyrin compounds and the two enzymes can be achieved by calculating thermodynamic parameters. When both ΔH^0 and ΔS^0 are positive, the predominant interaction force is hydrophobic. When both ΔH^0 and ΔS^0 are negative, the main forces are hydrogen bonding and van der Waals forces. When ΔH^0 < 0 and ΔS^0 > 0, the primary interaction is electrostatic attraction.
(§6) The thermodynamic parameters were calculated using Formulas (9) and (10), and then the Van’t Hoff plot for the interactions between the porphyrin compounds and the two enzymes was generated by plotting lnKa on the Y-axis versus 1/T on the X-axis.(9) lnKa=−ΔH^0/RT+ΔS^0/R (10) ΔG^0=ΔH^0−TΔS^0=−RTlnKa

α-amylase [2] = biological target: T2, α-amylase (Sus scrofa, UniProt P00690); experiment: Three-dimensional fluorescence spectroscopy of α-amylase complexes; conditions: 298 K; TAPP 2.5, THPP 10, TCPP 10, Fe–TCPP 12.5, Ni–TCPP 17.5, Cu–TCPP 10 μg/mL
T2 sequence (P00690 16-511): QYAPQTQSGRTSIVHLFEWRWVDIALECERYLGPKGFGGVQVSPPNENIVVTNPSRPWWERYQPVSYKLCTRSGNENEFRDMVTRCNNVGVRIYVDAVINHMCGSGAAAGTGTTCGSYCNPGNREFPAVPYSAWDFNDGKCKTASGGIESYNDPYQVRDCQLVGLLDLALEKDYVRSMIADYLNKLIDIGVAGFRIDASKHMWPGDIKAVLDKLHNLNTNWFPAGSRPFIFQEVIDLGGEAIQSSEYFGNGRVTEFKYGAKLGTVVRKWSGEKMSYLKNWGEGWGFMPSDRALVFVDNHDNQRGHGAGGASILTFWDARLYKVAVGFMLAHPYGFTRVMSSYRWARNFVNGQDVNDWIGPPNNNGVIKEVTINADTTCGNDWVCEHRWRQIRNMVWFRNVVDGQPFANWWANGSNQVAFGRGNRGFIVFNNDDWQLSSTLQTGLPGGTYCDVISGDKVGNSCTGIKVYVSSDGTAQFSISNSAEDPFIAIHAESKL

α-amylase [3] = biological target: T2, α-amylase; experiment: Mode of α-AMY inhibition (reversibility, Lineweaver–Burk kinetics); assay type: biochemical; conditions: for type of inhibition of α-amylase: Lineweaver–Burk plots; for reversibility of inhibition of α-amylase: enzyme 100–400 U/L, substrate 5 mmol/L; for Kis: enzyme–substrate complex inhibition constant
Text: (§7) In the experiment, the concentration of the fixed substrate Gal-G2-α-CNP/pNPG solution was 5 mmol/L, and the concentrations of the two enzymes (100, 200, 300, 400 U/L) were used to determine the effect of different concentrations of porphyrins on enzyme activity. The concentration of the enzyme was 200 U/L, and the concentration of the substrate Gal-G2-α-CNP/pNPG solution (2.5, 5, 7.5, 10 mmol/L) was used to determine the effect of different concentrations of porphyrins on the enzyme-catalyzed substrate activity.
(§8) Upon identifying the type of inhibition, the kinetic equations vary for different inhibition types.
(§9) In the formula, v, Vmax, Km, Ki, and Kis represent the reaction rate, maximum reaction rate, Michaelis constant, and free enzyme inhibition constant, respectively, and the binding enzyme inhibition constant. [S] denotes the substrate concentration. [I] denotes the inhibitor concentration.

α-glucosidase [4] = biological target: T1, α-glucosidase; assay type: biochemical; conditions: for type of inhibition of α-glucosidase: Lineweaver–Burk plots; for reversibility of inhibition of α-glucosidase: enzyme 100–400 U/L, substrate 5 mmol/L; for Kis: enzyme–substrate complex inhibition constant
Text: as §7, §8, §9

α-amylase [5] = biological target: T2, α-amylase; experiment: Fluorescence quenching, binding and thermodynamics with α-amylase; conditions: for quenching mechanism of α-amylase fluorescence: Stern–Volmer plots; for quenching mechanism of α-amylase fluorescence / ΔH^0 / ΔS^0: 298–310 K; for ΔH^0 / ΔS^0: Van’t Hoff
Text: In the α-amylase experiment, a series of porphyrins and amylase (200 U/L) were mixed in a volume ratio of 1:1.
as §1, §2, §3, §4, §5, §6

T1 sequence (P53341 whole entry): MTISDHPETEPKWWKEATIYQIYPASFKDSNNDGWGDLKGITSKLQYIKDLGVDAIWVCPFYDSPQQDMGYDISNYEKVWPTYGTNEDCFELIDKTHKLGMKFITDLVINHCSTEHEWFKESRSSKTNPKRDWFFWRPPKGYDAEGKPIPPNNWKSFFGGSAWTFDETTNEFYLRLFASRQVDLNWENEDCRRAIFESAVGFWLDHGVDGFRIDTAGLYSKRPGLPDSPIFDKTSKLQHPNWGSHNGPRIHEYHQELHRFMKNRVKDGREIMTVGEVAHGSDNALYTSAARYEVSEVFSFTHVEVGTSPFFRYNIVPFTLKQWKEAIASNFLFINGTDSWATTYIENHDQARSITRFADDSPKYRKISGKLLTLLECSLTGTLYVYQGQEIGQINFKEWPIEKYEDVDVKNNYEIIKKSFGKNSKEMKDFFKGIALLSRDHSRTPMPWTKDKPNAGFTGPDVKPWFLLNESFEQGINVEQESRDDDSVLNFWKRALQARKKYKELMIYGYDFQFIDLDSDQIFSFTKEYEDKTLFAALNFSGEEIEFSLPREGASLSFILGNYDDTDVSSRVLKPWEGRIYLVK

Nc1ccc(-c2c3nc(c(-c4ccc(N)cc4)c4ccc([nH]4)c(-c4ccc(N)cc4)c4nc(c(-c5ccc(N)cc5)c5ccc2[nH]5)C=C4)C=C3)cc1 [TAPP]
binding constants K (α-glucosidase [1]): (0.65 ± 0.02) × 10^5 L·mol^−1 | quenching mechanism of α-glucosidase fluorescence (α-glucosidase [1]): static quenching | Kq (α-glucosidase [1]; T 298 K): 6.25 ± 0.04 ×10^12 L/mol/s | Ksv (α-glucosidase [1]; T 298 K): 6.25 ± 0.04 ×10^4 L/mol | n (number of binding sites) (α-glucosidase [1]; T 298 K): 1.14 | ΔG^0 (α-glucosidase [1]; T 298 K): -7.424 ± 0.019 kcal/mol | Kq (α-glucosidase [1]; T 304 K): 5.71 ± 0.01 ×10^12 L/mol/s | Ksv (α-glucosidase [1]; T 304 K): 5.71 ± 0.01 ×10^4 L/mol | n (number of binding sites) (α-glucosidase [1]; T 304 K): 1.09 | ΔG^0 (α-glucosidase [1]; T 304 K): -7.165 ± 0.012 kcal/mol | Kq (α-glucosidase [1]; T 310 K): 5.66 ± 0.02 ×10^12 L/mol/s | Ksv (α-glucosidase [1]; T 310 K): 5.66 ± 0.02 ×10^4 L/mol | n (number of binding sites) (α-glucosidase [1]; T 310 K): 1.01 | ΔG^0 (α-glucosidase [1]; T 310 K): -6.826 ± 0.012 kcal/mol | ΔH^0 (α-glucosidase [1]): -22.23 ± 0.019 kcal/mol | ΔS^0 (α-glucosidase [1]): −207.76 ± 0.14 J/mol/k | Peak 1 Fluorescence Intensity (α-amylase [2]): 317.2 | Peak 2 Fluorescence Intensity (α-amylase [2]): 7.013 | Vmax (α-amylase [3]; C 2 μg/mL): 0.1670 ± 0.0030 ΔOD/min | Vmax (α-amylase [3]; C 4 μg/mL): 0.1562 ± 0.0039 ΔOD/min | Vmax (α-amylase [3]; C 6 μg/mL): 0.1425 ± 0.0032 ΔOD/min | Vmax (α-amylase [3]; C 8 μg/mL): 0.1328 ± 0.0034 ΔOD/min | Vmax (α-amylase [3]; C 10 μg/mL): 0.1243 ± 0.0028 ΔOD/min | type of inhibition of α-amylase (α-amylase [3]): mixed type | reversibility of inhibition of α-amylase (α-amylase [3]): reversible inhibition | Kis (α-amylase [3]): 21.2847 ± 0.0677 µg/mL | Vmax (α-glucosidase [4]; C 12.5 μg/mL): 0.0791 ± 0.0021 ΔOD/min | Vmax (α-glucosidase [4]; C 15 μg/mL): 0.0767 ± 0.0013 ΔOD/min | Vmax (α-glucosidase [4]; C 17.5 μg/mL): 0.0736 ± 0.0015 ΔOD/min | Vmax (α-glucosidase [4]; C 20 μg/mL): 0.0711 ± 0.0011 ΔOD/min | Vmax (α-glucosidase [4]; C 22.5 μg/mL): 0.0688 ± 0.0012 ΔOD/min | type of inhibition of α-glucosidase (α-glucosidase [4]): mixed type | reversibility of inhibition of α-glucosidase (α-glucosidase [4]): reversible inhibition | Kis (α-glucosidase [4]): 55.1227 ± 0.1247 µg/mL | quenching mechanism of α-amylase fluorescence (α-amylase [5]): pure static quenching | Kq (α-amylase [5]; T 298 K): 4.07 ± 0.05 ×10^12 L/mol/s | Ksv (α-amylase [5]; T 298 K): 4.07 ± 0.05 ×10^4 L/mol | n (number of binding sites) (α-amylase [5]; T 298 K): 1.48 | ΔG^0 (α-amylase [5]; T 298 K): -9.168 ± 0.0263 kcal/mol | Kq (α-amylase [5]; T 304 K): 3.37 ± 0.02 ×10^12 L/mol/s | Ksv (α-amylase [5]; T 304 K): 3.37 ± 0.02 ×10^4 L/mol | n (number of binding sites) (α-amylase [5]; T 304 K): 1.40 | ΔG^0 (α-amylase [5]; T 304 K): -8.817 ± 0.0287 kcal/mol | Kq (α-amylase [5]; T 310 K): 3.07 ± 0.09 ×10^12 L/mol/s | Ksv (α-amylase [5]; T 310 K): 3.07 ± 0.09 ×10^4 L/mol | n (number of binding sites) (α-amylase [5]; T 310 K): 1.31 | ΔG^0 (α-amylase [5]; T 310 K): -8.329 ± 0.0239 kcal/mol | ΔH^0 (α-amylase [5]): -29.935 ± 0.0287 kcal/mol | ΔS^0 (α-amylase [5]): −291.29 ± 0.12 J/mol/k

O=C(O)c1ccc(-c2c3nc(c(-c4ccc(C(=O)O)cc4)c4ccc([nH]4)c(-c4ccc(C(=O)O)cc4)c4nc(c(-c5ccc(C(=O)O)cc5)c5ccc2[nH]5)C=C4)C=C3)cc1 [TCPP]
binding constants K (α-glucosidase [1]): (0.97 ± 0.02) × 10^5 L·mol^−1 | quenching mechanism of α-glucosidase fluorescence (α-glucosidase [1]): static quenching | Kq (α-glucosidase [1]; T 298 K): 7.45 ± 0.04 ×10^12 L/mol/s | Ksv (α-glucosidase [1]; T 298 K): 7.45 ± 0.04 ×10^4 L/mol | n (number of binding sites) (α-glucosidase [1]; T 298 K): 1.30 | ΔG^0 (α-glucosidase [1]; T 298 K): -8.368 ± 0.014 kcal/mol | Kq (α-glucosidase [1]; T 304 K): 4.90 ± 0.02 ×10^12 L/mol/s | Ksv (α-glucosidase [1]; T 304 K): 4.90 ± 0.02 ×10^4 L/mol | n (number of binding sites) (α-glucosidase [1]; T 304 K): 1.19 | ΔG^0 (α-glucosidase [1]; T 304 K): -7.651 ± 0.017 kcal/mol | Kq (α-glucosidase [1]; T 310 K): 4.22 ± 0.09 ×10^12 L/mol/s | Ksv (α-glucosidase [1]; T 310 K): 4.22 ± 0.09 ×10^4 L/mol | n (number of binding sites) (α-glucosidase [1]; T 310 K): 1.07 | ΔG^0 (α-glucosidase [1]; T 310 K): -7.075 ± 0.012 kcal/mol | ΔH^0 (α-glucosidase [1]): -40.504 ± 0.0239 kcal/mol | ΔS^0 (α-glucosidase [1]): −451.52 ± 0.12 J/mol/k | Peak 1 Fluorescence Intensity (α-amylase [2]): 461.6 | Peak 2 Fluorescence Intensity (α-amylase [2]): 58.06 | Vmax (α-amylase [3]; C 25 μg/mL): 0.1046 ± 0.0025 ΔOD/min | Vmax (α-amylase [3]; C 50 μg/mL): 0.0872 ± 0.0014 ΔOD/min | Vmax (α-amylase [3]; C 100 μg/mL): 0.0709 ± 0.0018 ΔOD/min | Vmax (α-amylase [3]; C 150 μg/mL): 0.0583 ± 0.0021 ΔOD/min | Vmax (α-amylase [3]; C 200 μg/mL): 0.0496 ± 0.0007 ΔOD/min | type of inhibition of α-amylase (α-amylase [3]): mixed type | reversibility of inhibition of α-amylase (α-amylase [3]): reversible inhibition | Kis (α-amylase [3]): 132.4382 ± 0.1403 µg/mL | Vmax (α-glucosidase [4]; C 5 μg/mL): 0.1369 ± 0.0049 ΔOD/min | Vmax (α-glucosidase [4]; C 25 μg/mL): 0.1016 ± 0.0014 ΔOD/min | Vmax (α-glucosidase [4]; C 50 μg/mL): 0.0745 ± 0.0019 ΔOD/min | Vmax (α-glucosidase [4]; C 100 μg/mL): 0.0516 ± 0.0017 ΔOD/min | Vmax (α-glucosidase [4]; C 150 μg/mL): 0.0389 ± 0.0006 ΔOD/min | type of inhibition of α-glucosidase (α-glucosidase [4]): mixed type | reversibility of inhibition of α-glucosidase (α-glucosidase [4]): reversible inhibition | Kis (α-glucosidase [4]): 52.5334 ± 0.1408 µg/mL | quenching mechanism of α-amylase fluorescence (α-amylase [5]): pure static quenching | Kq (α-amylase [5]; T 298 K): 4.04 ± 0.01 ×10^12 L/mol/s | Ksv (α-amylase [5]; T 298 K): 4.04 ± 0.01 ×10^4 L/mol | n (number of binding sites) (α-amylase [5]; T 298 K): 1.36 | ΔG^0 (α-amylase [5]; T 298 K): -8.315 ± 0.022 kcal/mol | Kq (α-amylase [5]; T 304 K): 3.55 ± 0.08 ×10^12 L/mol/s | Ksv (α-amylase [5]; T 304 K): 3.55 ± 0.08 ×10^4 L/mol | n (number of binding sites) (α-amylase [5]; T 304 K): 1.28 | ΔG^0 (α-amylase [5]; T 304 K): -7.928 ± 0.017 kcal/mol | Kq (α-amylase [5]; T 310 K): 3.01 ± 0.07 ×10^12 L/mol/s | Ksv (α-amylase [5]; T 310 K): 3.01 ± 0.07 ×10^4 L/mol | n (number of binding sites) (α-amylase [5]; T 310 K): 1.20 | ΔG^0 (α-amylase [5]; T 310 K): -7.572 ± 0.017 kcal/mol | ΔH^0 (α-amylase [5]): -26.778 ± 0.014 kcal/mol | ΔS^0 (α-amylase [5]): −259.31 ± 0.09 J/mol/k
